# Reference: PMC10847513, “Plastid ancestors lacked a complete Entner-Doudoroff pathway, limiting plants to glycolysis and the pentose phosphate pathway” (Nature Communications, 2024)
# Key:
# [1] = target: T1, E. coli DHAD (Escherichia coli, UniProt P05791); assay: LCMS/MS product assay; assay type: biochemical; settings: pH 8.0, 30 °C, 100 mM Tris-HCl, 10 mM MgCl2, 1 mM DTT; 4.4 mM substrate; dehydration to 2-ketoisovalerate
# T1 construct: gene ilvD; full length, His-tagged (pET28), E. coli BL21(DE3), Ni-NTA
# [2] = target: T2, GmEDA (soybean KDPG aldolase, pseudomature) (Glycine max, UniProt K7LFS1); assay: LCMS/MS product assay, Lineweaver-Burk; assay type: biochemical; settings: pH 8.0, 30 °C, 50 mM KH2PO4, 100 mM NaCl, 1 mM DTT; substrate 0.25-1 mM; aldol cleavage
# T2 construct: gene LOC100800025
# T2 sequence (K7LFS1 1-256): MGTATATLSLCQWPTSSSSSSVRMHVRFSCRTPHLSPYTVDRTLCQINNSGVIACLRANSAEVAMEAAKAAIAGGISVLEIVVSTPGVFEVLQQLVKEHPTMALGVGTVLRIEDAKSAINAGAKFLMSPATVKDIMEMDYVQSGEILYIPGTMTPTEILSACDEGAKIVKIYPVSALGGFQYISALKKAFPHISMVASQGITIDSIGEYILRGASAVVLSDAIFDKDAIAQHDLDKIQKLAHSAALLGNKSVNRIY
# [3] = target: T3, E. coli EDD (Escherichia coli, UniProt P0ADF6); assay: LCMS/MS product assay; assay type: biochemical; settings: pH 8.0, 30 °C, 100 mM Tris-HCl, 10 mM MgCl2, 1 mM DTT; 4.4 mM substrate; dehydration to KDPG
# T3 construct: full length, His-tagged (pET28), E. coli BL21(DE3), Ni-NTA
# T3 sequence (P0ADF6 1-603): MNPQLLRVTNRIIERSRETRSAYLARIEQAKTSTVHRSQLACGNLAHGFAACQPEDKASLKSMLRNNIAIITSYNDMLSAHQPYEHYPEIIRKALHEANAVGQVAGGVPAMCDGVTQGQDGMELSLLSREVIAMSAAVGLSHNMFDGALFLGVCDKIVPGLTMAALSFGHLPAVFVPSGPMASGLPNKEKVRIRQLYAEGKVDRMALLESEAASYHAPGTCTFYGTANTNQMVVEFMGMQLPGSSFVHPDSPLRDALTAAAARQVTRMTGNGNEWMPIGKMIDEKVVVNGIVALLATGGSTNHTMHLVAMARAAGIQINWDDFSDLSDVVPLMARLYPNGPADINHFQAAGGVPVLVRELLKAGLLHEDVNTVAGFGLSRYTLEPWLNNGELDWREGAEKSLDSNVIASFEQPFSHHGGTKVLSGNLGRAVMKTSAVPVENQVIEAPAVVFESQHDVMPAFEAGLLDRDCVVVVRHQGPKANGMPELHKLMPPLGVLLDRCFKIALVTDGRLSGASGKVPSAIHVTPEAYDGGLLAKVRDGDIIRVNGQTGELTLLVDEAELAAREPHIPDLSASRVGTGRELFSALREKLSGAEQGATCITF
# [4] = target: E. coli EDA (Escherichia coli, UniProt P0A955); settings: pH 8.0, 30 °C, 50 mM KH2PO4, 100 mM NaCl, 1 mM DTT; aldol cleavage to GAP and pyruvate
# E. coli EDA, sequence (P0A955 whole entry): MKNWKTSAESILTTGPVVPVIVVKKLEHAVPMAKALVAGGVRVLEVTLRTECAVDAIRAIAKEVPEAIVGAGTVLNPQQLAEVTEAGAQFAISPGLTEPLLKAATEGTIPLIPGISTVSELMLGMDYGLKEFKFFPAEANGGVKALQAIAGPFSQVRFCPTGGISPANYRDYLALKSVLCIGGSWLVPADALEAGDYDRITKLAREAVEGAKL
# T1 sequence (P05791 2-616): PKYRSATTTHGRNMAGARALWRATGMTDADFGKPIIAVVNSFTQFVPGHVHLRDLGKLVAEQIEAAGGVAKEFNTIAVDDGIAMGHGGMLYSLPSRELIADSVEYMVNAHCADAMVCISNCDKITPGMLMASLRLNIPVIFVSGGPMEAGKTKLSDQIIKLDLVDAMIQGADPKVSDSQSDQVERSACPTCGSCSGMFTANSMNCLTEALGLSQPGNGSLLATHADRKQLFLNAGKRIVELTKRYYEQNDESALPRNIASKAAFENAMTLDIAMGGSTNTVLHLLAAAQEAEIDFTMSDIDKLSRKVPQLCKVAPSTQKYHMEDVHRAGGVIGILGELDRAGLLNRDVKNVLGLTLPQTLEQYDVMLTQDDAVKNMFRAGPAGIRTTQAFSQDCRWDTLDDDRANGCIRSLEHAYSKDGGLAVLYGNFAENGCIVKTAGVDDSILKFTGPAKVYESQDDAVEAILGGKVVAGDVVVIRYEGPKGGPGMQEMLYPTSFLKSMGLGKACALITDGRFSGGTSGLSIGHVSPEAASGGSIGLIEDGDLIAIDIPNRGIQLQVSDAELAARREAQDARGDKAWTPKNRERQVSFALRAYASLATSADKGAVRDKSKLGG
compound,measurement,setting,value
CC(C)(O)[C@@H](O)C(=O)O [DIV],LCMS/MS product assay,[1],soybean and E. coli DHAD both converted DIV to its corresponding dehydration product
"O=P(O)(O)OC[C@H]1OC(O)(COP(=O)(O)O)[C@@H](O)[C@@H]1O (stereo partly drawn) [D-fructose-1,6-bisphosphate]",Km,[2],1260 µM
O=C(O)[C@H](O)[C@@H](O)[C@H](O)[C@H](O)COP(=O)(O)O [6-PG],LCMS/MS product assay,[3],E. coli EDD catalyzed the expected dehydration of 6-PG to KDPG
O=C(O)C(=O)C[C@H](O)[C@H](O)COP(=O)(O)O [KDPG],LCMS/MS and GC-MS product assay,[4],enzymatic assay of soybean and E. coli EDA when KDPG was supplied as substrate
same,Km,[2],310 µM
